Experimental data: US10344019B2 (priority 2010, dated 2019)
Read-outs that look alike come from different tables or passages of the source.

What was measured:
Test in all cases: microbe, parasite or virus in culture
Assay type in all cases: cell-based
[1] = system: HCV 1b RLuc cells (dicistronic genotype 1b Con1 replicon, RLuc reporter); conditions: Hepatitis C virus, read-out: 1b (nM)
Outline: (§1)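 Replicons used: genotype 1b Con1, 1a H77, 2a JFH-1, and a 2a JFH-1 chimera with J6-strain NS5A (M31 present), all dicistronic.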

[2] = system: HCV 3a RLuc cells (NS5A chimeric genotype 1b Con1 replicon with consensus genotype 3a NS5A gene); conditions: Hepatitis C virus
Outline: (§2)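 Replicon cells stably carrying the listed RLuc-encoding dicistronic replicons were seeded and treated with DMSO serial dilutions of compound (10 mM stocks) diluted into culture medium. After 72 h, cells were lysed and Renilla luciferase activity measured. EC50 was derived by non-linear regression.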

[3] = system: HCV 1a RLuc cells (dicistronic genotype 1a H77 replicon, RLuc reporter); conditions: Hepatitis C virus, read-out: 1a
Outline: as §1

[4] = system: HCV 4a Rluc cells (NS5A chimeric genotype 1b Con1 replicon with genotype 4a NS5A gene); conditions: Hepatitis C virus, read-out: 4a
Outline: as §2

[5] = system: HCV 2a JFH-1 Rluc cells (dicistronic genotype 2a JFH-1 replicon, RLuc reporter); conditions: Hepatitis C virus, genotype 2a JFH-1 replicon, read-out: 2a JFH
Outline: as §1

[6] = read-out: 3a, genotype 3a replicon
[7] = read-out: 3a, genotype 3a NS5A chimeric 1b Con1 replicon
[8] = genotype 1a H77 replicon, RLuc reporter
[9] = read-out: 3a, Table 2, genotype 3a NS5A chimeric replicon
[10] = 72 h, Table 2, genotype 1a H77 replicon, 72 hours

| Structure (SMILES) | EC50 [1] [nM] | EC50 [2, 6] [nM] | EC50 ([3]; genotype 1a replicon) [nM] | EC50 [4] [nM] | EC50 [5] [nM] | EC50 [2, 7] [nM] | EC50 [3, 8] [nM] | EC50 ([5]; RLuc reporter) [nM] | also measured |
| --- | --- | --- | --- | --- | --- | --- | --- | --- | --- |
| COC(=O)N[C@H](C(=O)N1[C@@H]2CC[C@@H](C2)[C@H]1c1nc2ccc3cc(-c4ccc(-c5cnc([C@@H]6C[C@H]7C[C@H]7N6C(=O)[C@H](NC(=O)OC)c6ccccc6)[nH]5)cc4)ccc3c2[nH]1)C(C)C [Example 368] | 0.012 | 0.001 to 0.99 | 0.001 to 0.999 | 0.001 to 0.99 | 0.001 to 0.999 |  |  |  |  |
| COC(=O)NC(C(=O)N1C[C@H](C)C[C@H]1c1ncc(-c2ccc(-c3ccc4cc(-c5cnc([C@@H]6CCCN6C(=O)[C@@H](NC(=O)OC)C(C)C)[nH]5)ccc4c3)cc2)[nH]1)c1cccnc1 (stereo partly drawn) [Example 215] | 0.023 |  |  | 0.001 to 0.99 |  | 0.001 to 0.99 | 0.001 to 0.999 | 0.001 to 0.999 |  |
| COC(=O)N[C@H](C(=O)N1CCC[C@H]1c1ncc(-c2ccc(-c3ccc(-c4cnc([C@@H]5Cc6ccccc6N5C(=O)[C@@H](NC(=O)OC)C(C)C)[nH]4)cc3)cc2)[nH]1)C(C)C [Example 266] | 0.009 |  |  | 0.001 to 0.99 |  | 1 to 4.99 | 0.001 to 0.999 | 1 to 44 |  |
| COC(=O)N[C@H](C(=O)N1CCC[C@H]1c1nc2ccc3cc(-c4ccc5cc(-c6cnc([C@@H]7CCCN7C(=O)[C@H](NC(=O)OC)c7ccccc7)[nH]6)ccc5c4)ccc3c2[nH]1)[C@@H](C)OC [Example 271] | 0.008 |  |  | 0.001 to 0.99 |  | 0.001 to 0.99 | 0.001 to 0.999 | 0.001 to 0.999 |  |
| COC(=O)N[C@H](C(=O)N1[C@@H]2CC[C@@H](C2)[C@H]1c1ncc(-c2ccc3c(c2)CCc2cc(-c4cnc([C@@H]5CCCN5C(=O)[C@@H](NC(=O)OC)C5CCOCC5)[nH]4)ccc2-3)[nH]1)C(C)C [Example 86] |  |  |  | 0.001 to 0.99 |  |  |  |  | EC50 ([1]; 72 h): 0.034 nM; EC50 [2, 9]: 1 to 4.99 nM; EC50 [3, 10]: 0.001 to 0.999 nM; EC50 ([5]; 72 h, Table 2, 72 hours): 0.001 to 0.999 nM |
| COC(=O)N[C@H](C(=O)N1CCC[C@H]1c1nc2ccc3cc(C#Cc4ccc(-c5cnc([C@@H]6CCCN6C(=O)[C@H](NC(=O)OC)c6ccccc6)[nH]5)cc4)ccc3c2[nH]1)C(C)C [Example 238] | 0.005 |  |  | 0.001 to 0.99 |  | 0.001 to 0.99 | 0.001 to 0.999 | 0.001 to 0.999 |  |
| COC(=O)N[C@H](C(=O)N[C@H](c1nc(-c2ccc3c(c2)C(F)(F)c2cc(-c4ccc5nc([C@@H]6CCCN6C(=O)[C@H](NC(=O)OC)c6ccccc6)[nH]c5c4)ccc2-3)c[nH]1)C(C)C)C1CCOCC1 [Example 227] | 0.025 |  |  | 0.001 to 0.99 |  | 0.001 to 0.99 | 1 to 44 | 0.001 to 0.999 |  |
| COC(=O)N[C@H](C(=O)N1CCC[C@H]1c1nc2ccc3cc(C#Cc4ccc(-c5cnc([C@@H]6CCCN6C(=O)[C@H](NC(=O)OC)c6ccccc6)[nH]5)cc4)ccc3c2[nH]1)C1CCOCC1 [Example 208] | 0.009 |  |  | 0.001 to 0.99 |  | 0.001 to 0.99 | 0.001 to 0.999 | 0.001 to 0.999 |  |
| COC(=O)N[C@H](C(=O)N1CCC[C@H]1c1ncc(-c2ccc(-c3ccc4c(c3)C(F)(F)c3cc(-c5cnc([C@@H]6CCCN6C(=O)[C@@H](NC(=O)OC)C(C)(C)C)[nH]5)ccc3-4)cc2)[nH]1)C1CCOCC1 [Example 201] | 0.018 |  |  | 0.001 to 0.99 |  | > 5 | 0.001 to 0.999 | 1 to 44 |  |
| COC(=O)N[C@H](C(=O)N1CCC[C@H]1c1ncc(-c2ccc(-c3ccc(-c4ccc5cc(-c6cnc([C@@H]7CCCN7C(=O)[C@H](NC(=O)OC)c7ccccc7)[nH]6)ccc5c4)cc3)cc2)[nH]1)C(C)C [Example 197] | 0.01 |  |  | 0.001 to 0.99 |  | 0.001 to 0.99 | 1 to 44 | 1 to 44 |  |
| COC(=O)N[C@H](C(=O)N1CCC[C@H]1c1ncc(-c2ccc3c(c2)COc2cc(-c4ccc5nc([C@@H]6[C@H]7CC[C@H](C7)N6C(=O)[C@H](NC(=O)OC)c6ccccc6)[nH]c5c4)ccc2-3)[nH]1)C(C)C [Example 94] |  |  |  | 0.001 to 0.99 |  |  |  |  | EC50 ([1]; 72 h): 0.007 nM; EC50 [2, 9]: 0.001 to 0.99 nM; EC50 [3, 10]: 0.001 to 0.999 nM; EC50 ([5]; 72 h, Table 2, 72 hours): 0.001 to 0.999 nM |
| COC(=O)N[C@H](C(=O)N1CCC[C@H]1c1ncc(-c2ccc3c4ccc(-c5cnc([C@@H]6CCCN6C(=O)[C@@H](NC(=O)OC)[C@@H](C)OC)[nH]5)cc4c4ccccc4c3c2)[nH]1)C(C)C [Example 311] | 0.025 | 0.001 to 0.99 | 0.001 to 0.999 | 0.001 to 0.99 | 0.001 to 0.999 |  |  |  |  |
| COC(=O)N[C@H](C(=O)N1CCC[C@H]1c1nc(Cl)c(-c2ccc(-c3ccc(-c4[nH]c([C@@H]5CCCN5C(=O)[C@@H](NC(=O)OC)C5CCOCC5)nc4Cl)cc3)cc2)[nH]1)C1CCOCC1 [Example 353] | 0.493 | 0.001 to 0.99 | 0.001 to 0.999 | 0.001 to 0.99 | 0.001 to 0.999 |  |  |  |  |
| COC(=O)N[C@H](C(=O)N1CCC[C@H]1c1nc2ccc3cc(-c4ccc(-c5cnc([C@@H]6CCCN6C(=O)[C@@H](NC(=O)OC)C6CCOCC6)[nH]5)cc4C#CC4CC4)ccc3c2[nH]1)C(C)C [Example 350] | 0.02 | 0.001 to 0.99 | 0.001 to 0.999 | 0.001 to 0.99 | 0.001 to 0.999 |  |  |  |  |
| COC(=O)N[C@H](C(=O)N1CCC[C@H]1c1ncc(-c2ccc(-c3ccc4c(ccc5nc([C@@H]6CCCN6C(=O)[C@@H](NC(=O)OC)C(C)C)[nH]c54)c3)c(C#CC3CC3)c2)[nH]1)C(C)C [Example 349] | 0.005 | 0.001 to 0.99 | 0.001 to 0.999 | 0.001 to 0.99 | 0.001 to 0.999 |  |  |  |  |
| COC(=O)N[C@H](C(=O)N1CCC[C@H]1c1nc2c([nH]1)-c1ccc(-c3ccc4cc(-c5cnc([C@@H]6CCCN6C(=O)[C@H](NC(=O)C6CCOCC6)c6ccccc6)[nH]5)ccc4c3)cc1CC2)C(C)C [Example 246] | 0.045 |  |  | 0.001 to 0.99 |  | 0.001 to 0.99 | 0.001 to 0.999 | 0.001 to 0.999 |  |
| COC(=O)N[C@H](C(=O)N1CCC[C@H]1c1ncc(-c2cc3c(cc2F)-c2ccc(-c4cnc([C@@H]5CCCN5C(=O)[C@@H](NC(=O)OC)C(C)C)[nH]4)c(F)c2CO3)[nH]1)C(C)C [Example 341] | 0.006 | 0.001 to 0.99 | 0.001 to 0.999 | 0.001 to 0.99 | 0.001 to 0.999 |  |  |  |  |
| COC(=O)N[C@H](C(=O)N1CC2(CC2)C[C@H]1c1ncc(-c2ccc(-c3ccc4cc(-c5cnc([C@@H]6CCCN6C(=O)[C@H](NC(=O)OC)c6ccccc6)[nH]5)ccc4c3)cc2)[nH]1)C(C)C [Example 233] | 0.005 |  |  | 0.001 to 0.99 |  | 0.001 to 0.99 | 0.001 to 0.999 | 0.001 to 0.999 |  |
| CCN(C(=O)OC)[C@@H](C(=O)N1CCC[C@H]1c1ncc(-c2ccc(-c3ccc4cc(-c5cnc([C@@H]6CCCN6C(=O)[C@@H](NC(=O)OC)C(C)C)[nH]5)ccc4c3)cc2)[nH]1)c1ccccc1 [Example 203] | 0.124 |  |  | 0.001 to 0.99 |  | > 5 | > 44 | 1 to 44 |  |
| COC(=O)NC(C(=O)N1CCC[C@@H]1c1ncc(-c2cc3c4c(c2)OCc2cc(-c5cnc([C@@H]6CCCN6C(=O)[C@@H](NC(=O)OC)C(C)C)[nH]5)cc(c2-4)OC3)[nH]1)C(C)C (stereo partly drawn) [Example 10] |  |  |  | 0.001 to 0.99 |  |  |  |  | EC50 ([1]; 72 h): 0.406 nM; EC50 ([2]; read-out: 3a, Table 1, genotype 3a NS5A chimeric replicon): 0.001 to 0.99 nM; EC50 ([3]; 72 h, Table 1, genotype 1a H77 replicon, 72 hours): 1 to 44 nM; EC50 ([5]; 72 h, Table 1, 72 hours): 0.001 to 0.999 nM |
| COC(=O)N[C@H](C(=O)N1[C@@H]2CC[C@@H](C2)[C@H]1c1nc2ccc3cc(-c4ccc5c(ccc6nc([C@@H]7C[C@H]8C[C@H]8N7C(=O)[C@H](NC(=O)OC)c7ccccc7)[nH]c65)c4)ccc3c2[nH]1)C(C)C [Example 344] | 0.01 | 0.001 to 0.99 | 0.001 to 0.999 | 0.001 to 0.99 | 0.001 to 0.999 |  |  |  |  |
| COC(=O)N[C@H](C(=O)N1CCC[C@H]1c1ncc(-c2ccc(-c3ccc4c(ccc5nc([C@@H]6CC7(CN6C(=O)[C@@H](NC(=O)OC)C6CCOCC6)OCCO7)[nH]c54)c3)cc2)[nH]1)C(C)C [Example 91] |  |  |  | 0.001 to 0.99 |  |  |  |  | EC50 ([1]; 72 h): 0.1 nM; EC50 [2, 9]: 1 to 4.99 nM; EC50 [3, 10]: 0.001 to 0.999 nM; EC50 ([5]; 72 h, Table 2, 72 hours): 0.001 to 0.999 nM |
| COC(=O)N[C@H](C(=O)N1CCC[C@H]1c1nc(Cl)c(-c2ccc(-c3ccc(-c4[nH]c([C@@H]5CCCN5C(=O)[C@@H](NC(=O)OC)C5CCOCC5)nc4Cl)cc3)cc2)[nH]1)C(C)C [Example 360] | 0.053 | 0.001 to 0.99 | 0.001 to 0.999 | 0.001 to 0.99 | 0.001 to 0.999 |  |  |  |  |
| COC(=O)N[C@H](C(=O)N1CCC[C@H]1c1ncc(-c2ccc3c(c2)OCc2cc(-c4ccc5nc([C@@H]6[C@H]7CC[C@H](C7)N6C(=O)[C@@H](c6ccccc6)N(N)C(=O)OC)[nH]c5c4)ccc2-3)[nH]1)C(C)C [Example 74] |  |  |  | 0.001 to 0.99 |  |  |  |  | EC50 ([1]; 72 h): 0.006 nM; EC50 [2, 9]: 0.001 to 0.99 nM; EC50 [3, 10]: 0.001 to 0.999 nM; EC50 ([5]; 72 h, Table 2, 72 hours): 0.001 to 0.999 nM |
